These results are taken from PubChem BioAssay (NCI).

Some test systems named below: ACHN renal; CCRF-CEM leukemia; K-562 leukemia; SF-268 CNS; SK-MEL-5 melanoma; SNB-75 CNS; SW-620 colon; U251 CNS.
Common to all, as to test: DTP human tumour cell line panel, 48 h

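Results reflect a 48-hour exposure of cells in 96-well plates to compound at five concentrations. The concentration for 50% growth inhibition is given as GI50. The concentration for full growth arrest is given as TGI.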

By GI50 is commonly meant the concentration that inhibits growth by half. The term TGI denotes the concentration giving total growth inhibition. A low value points to more potent growth arrest. With `COc1ccc2nc3ccccc3c(NCc3ccccc3)c2c1`, the GI50 in the experiment on ACHN renal was 2.01 µM; in the experiment on CCRF-CEM leukemia it was 2.8 µM; with K-562 leukemia, 2.43 µM; in the experiment with SF-268 CNS it was 2.94 µM; in the experiment with SK-MEL-5 melanoma, 1.76 µM; in the experiment with SNB-75 CNS, 2.48 µM. Besides, the GI50 in the experiment on SW-620 colon was 1.72 µM; in the experiment with U251 CNS, 2.71 µM. Also, the TGI with ACHN renal came out at 5.97 µM; in the experiment on CCRF-CEM leukemia it was 11.7 µM; with K-562 leukemia, 11.5 µM; in the experiment on SF-268 CNS, 9.71 µM; in the experiment on SK-MEL-5 melanoma, 3.17 µM; with SNB-75 CNS it was 10 µM. The TGI in the experiment with SW-620 colon was determined as 4.68 µM; with U251 CNS it was 8.34 µM.
As to `OCC1OC(n2cnc3c(NCc4ccco4)ncnc32)C(O)C1O` (stereo not drawn), the GI50 in the experiment on ACHN renal is 0.542 µM; in the experiment with CCRF-CEM leukemia, 0.43 µM; in the experiment on K-562 leukemia, 4.47 µM; in the experiment with SF-268 CNS, 4.28 µM; in the experiment on SK-MEL-5 melanoma, 9.36 µM; in the experiment on SNB-75 CNS, 1.73 µM. The GI50 in the experiment on SW-620 colon was 0.849 µM; in the experiment on U251 CNS it was 4.43 µM. For the same compound, the TGI in the experiment on ACHN renal was more than 100 µM; in the experiment on CCRF-CEM leukemia, 5.4 µM; in the experiment on K-562 leukemia it was more than 100 µM; with SF-268 CNS, more than 100 µM; in the experiment with SK-MEL-5 melanoma, more than 74.1 µM; in the experiment with SNB-75 CNS, more than 28.1 µM. In addition, the TGI in the experiment with SW-620 colon and with U251 CNS was more than 100 µM in each case.
Regarding `Cc1nn(-c2ccccc2)c2nc(C)n(-c3ccc(Br)cc3)c(=O)c12`, the GI50 was 0.584 µM in the experiment with ACHN renal; 0.411 µM with CCRF-CEM leukemia; 0.302 µM in the experiment with K-562 leukemia; 2.33 µM with SF-268 CNS; 0.516 µM with SK-MEL-5 melanoma; 0.181 µM in the experiment with SNB-75 CNS. The GI50 was 0.353 µM in the experiment with SW-620 colon and 0.479 µM in the experiment on U251 CNS. Further, the TGI in the experiment on ACHN renal was more than 100 µM; in the experiment on CCRF-CEM leukemia, more than 100 µM; with K-562 leukemia it was more than 100 µM; in the experiment with SF-268 CNS, more than 100 µM; in the experiment on SK-MEL-5 melanoma, 11.1 µM; in the experiment on SNB-75 CNS, 0.725 µM. Besides, the TGI with SW-620 colon and in the experiment on U251 CNS was more than 100 µM each time.
For `CCOC(=O)c1ccc(NC(=O)c2cccc(NC3=C(Cl)C(=O)N(Cc4ccccc4)C3=O)c2)cc1`, the GI50 in the experiment on ACHN renal was more than 100 µM; in the experiment on CCRF-CEM leukemia, 15.7 µM; with K-562 leukemia, 33.3 µM; with SF-268 CNS, 42.3 µM; with SK-MEL-5 melanoma it was more than 100 µM; in the experiment on SNB-75 CNS it was more than 100 µM. For the same compound, the GI50 with SW-620 colon and in the experiment with U251 CNS was more than 100 µM each time. Besides, the TGI was more than 100 µM with ACHN renal; 65.9 µM with CCRF-CEM leukemia; more than 100 µM in the experiment on K-562 leukemia; more than 100 µM with SF-268 CNS; more than 100 µM in the experiment with SK-MEL-5 melanoma; more than 100 µM in the experiment with SNB-75 CNS. Further, the total growth inhibition concentration (TGI) with SW-620 colon and in the experiment on U251 CNS was more than 100 µM each time.
On to `CCC(C(=O)[C@@H](C)[C@@H](O)[C@H](C)[C@@H]1O[C@@H]([C@@H](CC)C(=O)ONC(=O)c2ccccc2)CC[C@@H]1C)[C@H]1O[C@]2(C=CC(=O)[C@]3(CC[C@@](C)([C@H]4CC[C@](O)(CC)[C@H](C)O4)O3)O2)[C@H](C)C[C@@H]1C` (stereo partly drawn), for which the GI50 was 0.641 µM in the experiment with ACHN renal; 0.12 µM in the experiment with CCRF-CEM leukemia; 0.171 µM with K-562 leukemia; 0.977 µM in the experiment on SF-268 CNS; 0.105 µM in the experiment on SK-MEL-5 melanoma; 0.238 µM with SNB-75 CNS. For the same compound, the results for the GI50 in the experiment with SW-620 colon and in the experiment with U251 CNS were 0.582 µM and 0.11 µM, respectively. The TGI worked out at 2.03 µM in the experiment on ACHN renal; 1.95 µM with CCRF-CEM leukemia; 1.79 µM with K-562 leukemia; 3.11 µM in the experiment with SF-268 CNS; 0.361 µM with SK-MEL-5 melanoma; 2.04 µM in the experiment with SNB-75 CNS. Besides, the TGI in the experiment on SW-620 colon was determined as 2.71 µM; in the experiment with U251 CNS it was 1.6 µM.
`CC(C)(C)OC(=O)N1Cc2cc3ccccc3nc2C1CO` (stereo not drawn): the GI50 in the experiment on ACHN renal, in the experiment on CCRF-CEM leukemia, in the experiment on K-562 leukemia, with SF-268 CNS, in the experiment on SK-MEL-5 melanoma and with SNB-75 CNS was more than 100 µM each time. Also, the GI50 in the experiment with SW-620 colon and with U251 CNS was more than 100 µM throughout. Also, the TGI in the experiment on ACHN renal, with CCRF-CEM leukemia, in the experiment on K-562 leukemia, with SF-268 CNS, in the experiment with SK-MEL-5 melanoma and in the experiment on SNB-75 CNS was more than 100 µM throughout. In addition, the TGI in the experiment with SW-620 colon and in the experiment with U251 CNS was more than 100 µM each time.
As to `Cn1cc(-c2nc(-c3cn(C)c4ncccc34)cs2)c2ccccc21`, the GI50 in the experiment with ACHN renal was 3.67 µM; with CCRF-CEM leukemia, 2.98 µM; in the experiment with K-562 leukemia, 0.412 µM; in the experiment on SF-268 CNS it was 4.83 µM; in the experiment on SK-MEL-5 melanoma it was 0.842 µM; in the experiment with SNB-75 CNS it was 1.44 µM. The GI50 in the experiment on SW-620 colon was 1.24 µM; in the experiment on U251 CNS, 1.53 µM. Also, the TGI in the experiment on ACHN renal is 79.4 µM; in the experiment with CCRF-CEM leukemia it was more than 100 µM; with K-562 leukemia, more than 100 µM; with SF-268 CNS, 37.3 µM; in the experiment with SK-MEL-5 melanoma, 3.06 µM; with SNB-75 CNS it was 4.83 µM. Also, the values for the TGI in the experiment on SW-620 colon and with U251 CNS were more than 100 µM and 11.4 µM, respectively.
For the compound `COC(=O)[C@H](CCCCNC(=O)OCc1ccccc1)NC(=O)[C@@H](NC(=O)Nc1cc(C(F)(F)F)cc(C(F)(F)F)c1)C(C)C`, the GI50 in the experiment with ACHN renal, in the experiment with CCRF-CEM leukemia, in the experiment on K-562 leukemia, in the experiment on SF-268 CNS, in the experiment with SK-MEL-5 melanoma and with SNB-75 CNS was more than 10 µM throughout. The GI50 in the experiment with SW-620 colon and in the experiment on U251 CNS was more than 10 µM throughout. Besides, the TGI in the experiment with ACHN renal, in the experiment on CCRF-CEM leukemia, with K-562 leukemia, with SF-268 CNS, in the experiment on SK-MEL-5 melanoma and with SNB-75 CNS was more than 10 µM throughout. In addition, the TGI with SW-620 colon and in the experiment on U251 CNS was more than 10 µM each time.
